Read-outs that look alike come from different tables or passages of the source.
Experiments:
Type in all cases: biochemical
cKIT = cKIT (Homo sapiens, UniProt P10721); experiment: Activity against various protein tyrosine kinases: CKIT; parameters: purchased MILLIPORE 14-559; settings: for inhibition at 0.01 µM: 10 nM
Description: (§1) Using techniques know those of ordinary skill in the art, compounds were tested for activity against various protein tyrosine kinases.

CaMKII (beta) = CaMKII (beta) (Homo sapiens, UniProt Q13554); experiment: Activity against various protein tyrosine kinases: CaMKII (beta); settings: for inhibition at 0.01 µM: 10 nM
Description: as §1

AurB = AurB (Homo sapiens, UniProt Q96GD4); experiment: Activity against various protein tyrosine kinases: AurB; settings: for inhibition at 0.01 µM: 10 nM; for inhibition at 1 µM: read-out: % Inhibition at 1 μM
Description: as §1

CaMKII (gamma) = CaMKII (gamma) (Homo sapiens, UniProt Q13555); experiment: Activity against various protein tyrosine kinases: CaMKII (gamma); settings: for inhibition at 0.01 µM: 10 nM
Description: as §1

Erk2 = Erk2 (Homo sapiens, UniProt P28482); experiment: Activity against various protein tyrosine kinases: Erk2; settings: for inhibition at 0.01 µM: 10 nM
Description: as §1

PKCz = target: T1, PKCz (Homo sapiens, UniProt Q05513); experiment: Activity against various protein tyrosine kinases: PKCz; settings: for inhibition at 0.01 µM: 10 nM
T1 sequence (Q05513 1-592): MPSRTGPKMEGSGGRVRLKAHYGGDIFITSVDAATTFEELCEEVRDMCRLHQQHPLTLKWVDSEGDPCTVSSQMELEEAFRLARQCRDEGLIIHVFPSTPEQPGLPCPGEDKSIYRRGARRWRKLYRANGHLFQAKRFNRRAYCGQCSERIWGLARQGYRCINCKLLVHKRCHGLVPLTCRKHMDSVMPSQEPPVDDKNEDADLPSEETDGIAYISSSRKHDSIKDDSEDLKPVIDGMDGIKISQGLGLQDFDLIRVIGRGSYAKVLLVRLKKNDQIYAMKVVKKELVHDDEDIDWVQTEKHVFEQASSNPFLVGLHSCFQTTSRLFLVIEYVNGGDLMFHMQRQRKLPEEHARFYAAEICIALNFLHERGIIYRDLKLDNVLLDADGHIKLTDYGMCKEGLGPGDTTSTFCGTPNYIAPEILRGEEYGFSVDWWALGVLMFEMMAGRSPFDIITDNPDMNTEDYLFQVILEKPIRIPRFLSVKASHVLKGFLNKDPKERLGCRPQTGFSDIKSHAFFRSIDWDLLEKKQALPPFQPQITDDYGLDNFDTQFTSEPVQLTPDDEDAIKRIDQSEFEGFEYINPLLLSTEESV
Description: as §1

CK1d = CK1d (Homo sapiens, UniProt P48730); experiment: Activity against various protein tyrosine kinases: CK1d; settings: for inhibition at 0.01 µM: 10 nM
Description: as §1

TSSK1 = target: T2, TSSK1 (Homo sapiens, UniProt Q9BXA7); experiment: Activity against various protein tyrosine kinases: TSSK1; settings: for inhibition at 0.01 µM: 10 nM
T2 sequence (Q9BXA7 1-367): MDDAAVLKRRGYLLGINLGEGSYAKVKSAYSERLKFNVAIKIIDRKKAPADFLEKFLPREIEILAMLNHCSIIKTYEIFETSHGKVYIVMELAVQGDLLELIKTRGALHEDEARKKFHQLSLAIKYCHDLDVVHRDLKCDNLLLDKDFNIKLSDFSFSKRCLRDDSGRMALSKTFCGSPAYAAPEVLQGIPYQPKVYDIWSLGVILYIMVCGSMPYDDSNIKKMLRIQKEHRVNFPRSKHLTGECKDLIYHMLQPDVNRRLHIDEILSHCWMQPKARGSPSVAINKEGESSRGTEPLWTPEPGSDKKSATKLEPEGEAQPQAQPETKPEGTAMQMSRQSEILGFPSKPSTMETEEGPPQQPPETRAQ
Description: as §1

FGFR2 (N549H) = FGFR2 (N549H) (Homo sapiens, UniProt P21802, N549H); experiment: Activity against various protein tyrosine kinases: FGFR2 (N549H); settings: for inhibition at 0.01 µM: 10 nM
Description: as §1

AKT1 = AKT1 (Homo sapiens, UniProt P31749); experiment: Activity against various protein tyrosine kinases: AKT1; settings: for inhibition at 0.01 µM: 10 nM
Description: as §1

Fer = Fer (Homo sapiens, UniProt P16591); experiment: Activity against various protein tyrosine kinases: Fer; settings: for inhibition at 0.01 µM: 10 nM
Description: as §1

TSSK2 = target: T3, TSSK2 (Homo sapiens, UniProt Q96PF2); experiment: Activity against various protein tyrosine kinases: TSSK2; settings: for inhibition at 0.01 µM: 10 nM
T3 sequence (Q96PF2 1-358): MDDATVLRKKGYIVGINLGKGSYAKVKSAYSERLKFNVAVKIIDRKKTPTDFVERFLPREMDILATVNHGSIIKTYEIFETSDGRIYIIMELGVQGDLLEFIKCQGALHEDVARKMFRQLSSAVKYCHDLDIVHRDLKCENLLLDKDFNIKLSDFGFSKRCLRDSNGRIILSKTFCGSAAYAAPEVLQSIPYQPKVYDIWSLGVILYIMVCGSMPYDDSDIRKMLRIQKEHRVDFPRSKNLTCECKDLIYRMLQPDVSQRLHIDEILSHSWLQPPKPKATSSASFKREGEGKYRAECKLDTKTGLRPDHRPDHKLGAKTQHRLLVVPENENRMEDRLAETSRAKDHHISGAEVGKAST
Description: as §1

p38a = p38a (Homo sapiens, UniProt Q16539); experiment: Activity against various protein tyrosine kinases: p38a; settings: for inhibition at 0.01 µM: 10 nM; for inhibition at 1 µM: read-out: % Inhibition at 1 μM
Description: as §1

AKT2 = AKT2 (Homo sapiens, UniProt P31751); experiment: Activity against various protein tyrosine kinases: AKT2; settings: for inhibition at 0.01 µM: 10 nM
Description: as §1

CHK2 = CHK2 (Homo sapiens, UniProt O96017); experiment: Activity against various protein tyrosine kinases: CHK2; settings: for inhibition at 0.01 µM: 10 nM
Description: as §1

FGFR2 = FGFR2 (Homo sapiens, UniProt P21802); experiment: Activity against various protein tyrosine kinases: FGFR2; settings: for inhibition at 0.01 µM: 10 nM
Description: as §1

AKT3 = AKT3 (Homo sapiens, UniProt Q9Y243); experiment: Activity against various protein tyrosine kinases: AKT3; settings: for inhibition at 0.01 µM: 10 nM
Description: as §1

MET = MET (Homo sapiens, UniProt P08581); experiment: Activity against various protein tyrosine kinases: MET; settings: for inhibition at 0.01 µM: 10 nM
Description: as §1

CaMKII (gamma), sequence (Q13555 whole entry, species assumed): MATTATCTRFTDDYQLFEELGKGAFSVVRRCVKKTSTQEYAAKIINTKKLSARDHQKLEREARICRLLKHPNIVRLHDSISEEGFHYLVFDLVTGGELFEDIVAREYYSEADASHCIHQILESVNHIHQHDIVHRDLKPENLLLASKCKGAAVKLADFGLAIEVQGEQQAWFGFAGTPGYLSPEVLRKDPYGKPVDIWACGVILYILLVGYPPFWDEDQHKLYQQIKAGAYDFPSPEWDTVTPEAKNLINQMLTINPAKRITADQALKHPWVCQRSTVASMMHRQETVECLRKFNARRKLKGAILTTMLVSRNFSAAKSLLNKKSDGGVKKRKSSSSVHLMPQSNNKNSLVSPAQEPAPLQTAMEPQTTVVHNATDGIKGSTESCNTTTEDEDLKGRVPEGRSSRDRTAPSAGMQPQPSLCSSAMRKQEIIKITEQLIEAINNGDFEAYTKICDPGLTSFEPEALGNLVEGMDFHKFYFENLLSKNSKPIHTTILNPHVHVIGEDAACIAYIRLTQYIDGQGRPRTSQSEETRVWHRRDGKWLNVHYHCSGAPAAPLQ
Fer, sequence (P16591 whole entry, species assumed): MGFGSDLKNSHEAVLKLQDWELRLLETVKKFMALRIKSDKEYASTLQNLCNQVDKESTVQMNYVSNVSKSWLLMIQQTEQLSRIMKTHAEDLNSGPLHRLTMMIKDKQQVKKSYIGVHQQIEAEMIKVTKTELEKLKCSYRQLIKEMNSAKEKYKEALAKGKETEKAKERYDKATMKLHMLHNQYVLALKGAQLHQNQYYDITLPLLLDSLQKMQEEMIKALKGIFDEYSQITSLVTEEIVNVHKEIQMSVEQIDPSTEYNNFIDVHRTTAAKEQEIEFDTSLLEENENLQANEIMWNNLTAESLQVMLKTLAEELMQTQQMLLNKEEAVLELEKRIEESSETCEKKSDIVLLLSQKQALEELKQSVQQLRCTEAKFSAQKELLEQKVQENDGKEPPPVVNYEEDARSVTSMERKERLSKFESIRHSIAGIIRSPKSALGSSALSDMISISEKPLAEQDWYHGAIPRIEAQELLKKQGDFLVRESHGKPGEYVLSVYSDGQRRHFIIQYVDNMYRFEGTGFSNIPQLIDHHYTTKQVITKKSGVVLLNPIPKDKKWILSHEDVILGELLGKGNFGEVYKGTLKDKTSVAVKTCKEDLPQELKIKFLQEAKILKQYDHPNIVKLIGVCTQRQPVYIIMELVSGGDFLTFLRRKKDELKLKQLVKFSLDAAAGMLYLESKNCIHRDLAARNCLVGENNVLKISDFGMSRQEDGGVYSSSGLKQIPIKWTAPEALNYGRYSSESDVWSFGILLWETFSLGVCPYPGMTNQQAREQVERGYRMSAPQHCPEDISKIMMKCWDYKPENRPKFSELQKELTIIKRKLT
CaMKII (beta), sequence (Q13554 whole entry): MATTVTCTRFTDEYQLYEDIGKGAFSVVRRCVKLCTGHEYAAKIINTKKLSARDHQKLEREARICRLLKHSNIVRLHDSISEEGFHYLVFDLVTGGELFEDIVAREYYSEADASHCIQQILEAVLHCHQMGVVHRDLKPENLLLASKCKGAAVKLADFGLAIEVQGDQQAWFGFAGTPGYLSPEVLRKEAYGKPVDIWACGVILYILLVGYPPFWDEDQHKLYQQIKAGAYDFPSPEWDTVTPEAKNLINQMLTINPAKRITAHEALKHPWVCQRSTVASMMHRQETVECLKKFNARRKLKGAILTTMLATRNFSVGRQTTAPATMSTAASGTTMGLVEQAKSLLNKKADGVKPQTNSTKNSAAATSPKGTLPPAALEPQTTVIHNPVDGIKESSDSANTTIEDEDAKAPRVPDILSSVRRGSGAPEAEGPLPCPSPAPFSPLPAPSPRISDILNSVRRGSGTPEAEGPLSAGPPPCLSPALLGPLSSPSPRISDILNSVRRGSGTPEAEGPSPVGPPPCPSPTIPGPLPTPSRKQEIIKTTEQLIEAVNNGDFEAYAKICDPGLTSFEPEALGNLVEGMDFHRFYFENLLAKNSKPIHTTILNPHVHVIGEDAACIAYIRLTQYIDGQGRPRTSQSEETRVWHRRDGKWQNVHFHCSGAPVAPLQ
FGFR2 (N549H), sequence (P21802 22-821 N549H, species assumed): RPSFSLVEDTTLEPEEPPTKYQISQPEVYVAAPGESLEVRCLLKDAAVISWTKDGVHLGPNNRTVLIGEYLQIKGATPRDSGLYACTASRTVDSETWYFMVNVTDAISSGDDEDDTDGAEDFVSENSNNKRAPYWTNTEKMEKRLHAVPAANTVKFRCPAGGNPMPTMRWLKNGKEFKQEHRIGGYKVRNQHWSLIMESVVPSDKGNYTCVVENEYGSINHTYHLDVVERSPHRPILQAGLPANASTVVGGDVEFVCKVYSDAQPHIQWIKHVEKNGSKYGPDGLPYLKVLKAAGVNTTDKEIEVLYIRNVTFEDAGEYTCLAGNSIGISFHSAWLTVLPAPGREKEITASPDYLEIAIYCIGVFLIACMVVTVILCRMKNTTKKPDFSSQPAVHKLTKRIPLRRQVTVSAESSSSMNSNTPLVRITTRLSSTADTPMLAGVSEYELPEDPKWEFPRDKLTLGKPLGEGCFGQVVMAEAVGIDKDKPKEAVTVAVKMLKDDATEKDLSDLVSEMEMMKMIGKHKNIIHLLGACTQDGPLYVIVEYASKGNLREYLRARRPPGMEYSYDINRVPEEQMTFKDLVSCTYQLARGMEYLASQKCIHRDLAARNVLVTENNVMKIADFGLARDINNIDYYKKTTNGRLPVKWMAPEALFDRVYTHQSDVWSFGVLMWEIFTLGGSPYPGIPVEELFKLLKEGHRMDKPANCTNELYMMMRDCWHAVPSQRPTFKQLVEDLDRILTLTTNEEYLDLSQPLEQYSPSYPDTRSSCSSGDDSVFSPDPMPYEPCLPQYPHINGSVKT
AKT3, sequence (Q9Y243 whole entry, species assumed): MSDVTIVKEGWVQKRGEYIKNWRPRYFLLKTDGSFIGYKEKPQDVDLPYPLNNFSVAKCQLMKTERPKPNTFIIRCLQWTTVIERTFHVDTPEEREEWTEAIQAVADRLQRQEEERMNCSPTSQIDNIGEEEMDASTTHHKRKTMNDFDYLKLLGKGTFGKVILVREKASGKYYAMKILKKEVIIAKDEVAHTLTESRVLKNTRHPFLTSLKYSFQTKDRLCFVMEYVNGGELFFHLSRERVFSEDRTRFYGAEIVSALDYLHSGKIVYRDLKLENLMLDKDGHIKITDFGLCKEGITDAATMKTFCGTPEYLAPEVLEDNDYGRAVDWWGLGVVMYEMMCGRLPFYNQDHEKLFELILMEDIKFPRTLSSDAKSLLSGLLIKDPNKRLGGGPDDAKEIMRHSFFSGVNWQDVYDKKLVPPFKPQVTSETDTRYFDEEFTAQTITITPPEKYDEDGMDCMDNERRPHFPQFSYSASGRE
CK1d, sequence (P48730 whole entry): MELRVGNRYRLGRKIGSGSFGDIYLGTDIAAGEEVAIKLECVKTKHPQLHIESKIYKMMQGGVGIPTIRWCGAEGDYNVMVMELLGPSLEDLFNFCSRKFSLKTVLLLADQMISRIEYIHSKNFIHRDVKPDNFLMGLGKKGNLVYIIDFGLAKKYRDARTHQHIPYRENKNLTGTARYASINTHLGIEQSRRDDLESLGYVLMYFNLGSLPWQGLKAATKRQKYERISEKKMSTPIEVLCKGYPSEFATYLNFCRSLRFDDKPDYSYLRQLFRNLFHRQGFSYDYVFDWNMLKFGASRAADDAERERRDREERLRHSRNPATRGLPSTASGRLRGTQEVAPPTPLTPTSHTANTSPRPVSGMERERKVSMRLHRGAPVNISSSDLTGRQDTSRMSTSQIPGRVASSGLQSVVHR
CHK2, sequence (O96017 whole entry, species assumed): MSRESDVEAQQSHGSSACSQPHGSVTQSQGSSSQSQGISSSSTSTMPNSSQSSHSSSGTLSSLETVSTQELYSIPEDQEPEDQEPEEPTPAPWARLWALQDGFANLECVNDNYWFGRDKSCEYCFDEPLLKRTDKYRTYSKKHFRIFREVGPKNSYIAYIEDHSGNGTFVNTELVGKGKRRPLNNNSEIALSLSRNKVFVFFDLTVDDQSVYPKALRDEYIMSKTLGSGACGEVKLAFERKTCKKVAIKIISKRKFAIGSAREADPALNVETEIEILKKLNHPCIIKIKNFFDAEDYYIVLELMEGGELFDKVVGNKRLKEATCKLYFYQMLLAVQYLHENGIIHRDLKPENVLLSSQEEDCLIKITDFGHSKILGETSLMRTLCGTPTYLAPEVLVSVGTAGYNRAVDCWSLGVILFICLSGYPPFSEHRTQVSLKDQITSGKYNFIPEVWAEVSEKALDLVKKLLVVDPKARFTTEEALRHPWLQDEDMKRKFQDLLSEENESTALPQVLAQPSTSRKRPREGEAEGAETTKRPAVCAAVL
AKT1, sequence (P31749 whole entry, species assumed): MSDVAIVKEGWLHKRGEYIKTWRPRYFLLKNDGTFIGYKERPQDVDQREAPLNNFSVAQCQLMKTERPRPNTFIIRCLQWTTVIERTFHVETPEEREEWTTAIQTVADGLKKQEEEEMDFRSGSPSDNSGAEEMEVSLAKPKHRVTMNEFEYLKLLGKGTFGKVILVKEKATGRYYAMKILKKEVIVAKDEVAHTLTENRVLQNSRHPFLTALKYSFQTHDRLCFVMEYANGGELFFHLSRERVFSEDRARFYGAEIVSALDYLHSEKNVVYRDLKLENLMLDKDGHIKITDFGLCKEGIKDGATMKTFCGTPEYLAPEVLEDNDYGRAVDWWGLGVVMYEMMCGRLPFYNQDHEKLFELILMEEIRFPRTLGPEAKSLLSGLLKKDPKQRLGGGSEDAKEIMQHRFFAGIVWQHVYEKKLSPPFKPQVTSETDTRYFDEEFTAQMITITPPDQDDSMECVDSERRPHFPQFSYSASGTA
FGFR2, sequence (P21802 22-821, species assumed): as the sequence (P21802 22-821 N549H, species assumed) above, with H528N counted along it

| SMILES | inhibition at 0.01 µM (cKIT) | inhibition at 1 µM (CaMKII (beta)) | inhibition at 0.01 µM (CaMKII (gamma)) | inhibition at 0.01 µM (Erk2) | inhibition at 0.01 µM (PKCz) | inhibition at 0.01 µM (CK1d) | inhibition at 0.01 µM (TSSK1) | inhibition at 1 µM (TSSK1) | inhibition at 0.01 µM (FGFR2 (N549H)) | inhibition at 1 µM (FGFR2 (N549H)) | inhibition at 0.01 µM (AKT1) | inhibition at 1 µM (AKT1) | inhibition at 0.01 µM (Fer) | inhibition at 0.01 µM (TSSK2) | inhibition at 1 µM (AKT2) | inhibition at 0.01 µM (CHK2) | inhibition at 0.01 µM (FGFR2) | inhibition at 1 µM (FGFR2) | inhibition at 0.01 µM (AKT3) | inhibition at 1 µM (AKT3) | further results |
| --- | --- | --- | --- | --- | --- | --- | --- | --- | --- | --- | --- | --- | --- | --- | --- | --- | --- | --- | --- | --- | --- |
| COCCOCCOCCOCCOCCOCCOCCNC(=O)OCCN1CCN(c2cc(Nc3ncc(C(=O)Nc4c(C)cccc4Cl)s3)nc(C)n2)CC1 [mPEG7-NHCOO-Dasatinib] | 34% | 2% | 6% | 3% | 5% | 0% | -3% | -5% | 5% | 63% | -1% | 0% | -2% | 3% | 3% | 2% | 5% | 35% | -3% | -2% | inhibition at 1 µM (cKIT): 100%; inhibition at 0.01 µM (CaMKII (beta)): 1%; inhibition at 0.01 µM (AurB; AurB): 0%; inhibition at 1 µM (AurB; AurB, 1 μM): 4%; inhibition at 1 µM (CaMKII (gamma)): 3%; inhibition at 1 µM (Erk2): 2%; inhibition at 1 µM (PKCz): -9%; inhibition at 1 µM (CK1d): 9%; inhibition at 1 µM (Fer): 5%; inhibition at 1 µM (TSSK2): -2%; inhibition at 0.01 µM (p38a; p38a): 5%; inhibition at 1 µM (p38a; p38a, 1 μM): 74%; inhibition at 0.01 µM (AKT2): 3%; inhibition at 1 µM (CHK2): 1%; inhibition at 0.01 µM (MET): 1%; inhibition at 1 µM (MET): 1% |
| Cc1nc(Nc2ncc(C(=O)Nc3c(C)cccc3Cl)s2)cc(N2CCN(CCO)CC2)n1 [Dasatinib, reference compound] | 30% | 3% | 5% | -2% | 2% | 1% | -5% | -6% | 6% | 71% | -6% | -2% | -3% | -3% | -2% | 3% | 3% | 36% | -3% | -4% | inhibition at 1 µM (AurB): 6%; inhibition at 1 µM (p38a): 75%; inhibition at 0.01 µM (MET): -2% |
| COCCOCCOCCNC(=O)OCCN1CCN(c2cc(Nc3ncc(C(=O)Nc4c(C)cccc4Cl)s3)nc(C)n2)CC1 [mPEG3-NHCOO-Dasatinib] | 34% | 2% | 2% | 6% | -12% | 1% | -1% | 0% | 7% | 75% | 7% | 0% | -4% | -1% | 7% | 1% | -2% | 38% | 0% | -1% | inhibition at 1 µM (cKIT): 100%; inhibition at 0.01 µM (CaMKII (beta)): 1%; inhibition at 0.01 µM (AurB; AurB): -1%; inhibition at 1 µM (AurB; AurB, 1 μM): 4%; inhibition at 1 µM (CaMKII (gamma)): 2%; inhibition at 1 µM (Erk2): 11%; inhibition at 1 µM (PKCz): -13%; inhibition at 1 µM (CK1d): 3%; inhibition at 1 µM (Fer): 5%; inhibition at 1 µM (TSSK2): 0%; inhibition at 0.01 µM (p38a; p38a): 6%; inhibition at 1 µM (p38a; p38a, 1 μM): 81%; inhibition at 0.01 µM (AKT2): 9%; inhibition at 1 µM (CHK2): 11%; inhibition at 0.01 µM (MET): 3%; inhibition at 1 µM (MET): 0% |

Source: patent US20120094998A1, “Oligomer-Protein Tyrosine Kinase Inhibitor Conjugates” (Nektar Therapeutics, priority 2009, published 2012)
